From ChEMBL document CHEMBL1141126, “Improving the antiviral efficacy and selectivity of HIV-1 reverse transcriptase inhibitor TSAO-T by the introduction of functional groups at the N-3 position” (J Med Chem, 2005)

Each compound was assayed on Human immunodeficiency virus 2 (assay: Effective concentration required to inhibit HIV-2 induced cytopathicity in human CEM cell line). Details: Human immunodeficiency virus 2, CCRF-CEM.
Format: functional, organism-based

`Cc1cn([C@@H]2O[C@H](CO[Si](C)(C)C(C)(C)C)[C@@]3(OS(=O)(=O)C=C3N)[C@H]2O[Si](C)(C)C(C)(C)C)c(=O)n(CC(N)=O)c1=O` and `Cc1cn([C@@H]2O[C@H](CO[Si](C)(C)C(C)(C)C)[C@@]3(OS(=O)(=O)C=C3N)[C@H]2O[Si](C)(C)C(C)(C)C)c(=O)n(CC(=O)O)c1=O` cannot be ordered by EC50: greater than 10 µM for the first, no less than 155 µM for the second.

`Cc1cn([C@@H]2O[C@H](CO[Si](C)(C)C(C)(C)C)[C@@]3(OS(=O)(=O)C=C3N)[C@H]2O[Si](C)(C)C(C)(C)C)c(=O)n(C/C=C/CO)c1=O` and `COC(=O)CCCCn1c(=O)c(C)cn([C@@H]2O[C@H](CO[Si](C)(C)C(C)(C)C)[C@@]3(OS(=O)(=O)C=C3N)[C@H]2O[Si](C)(C)C(C)(C)C)c1=O` cannot be ordered by EC50: greater than 2 µM for the first, no less than 142 µM for the second.

`CNC(=O)CCCCCn1c(=O)c(C)cn([C@@H]2O[C@H](CO[Si](C)(C)C(C)(C)C)[C@@]3(OS(=O)(=O)C=C3N)[C@H]2O[Si](C)(C)C(C)(C)C)c1=O` and `Cc1cn([C@@H]2O[C@H](CO[Si](C)(C)C(C)(C)C)C3(OS(=O)(=O)C=C3N)[C@H]2O[Si](C)(C)C(C)(C)C)c(=O)[nH]c1=O` (stereo partly specified) cannot be ordered by EC50: greater than 125 µM for the first, greater than 20 µM for the second.

The compounds below were run against Human immunodeficiency virus type 1 reverse transcriptase (Human immunodeficiency virus 1, UniProt Q72547) (assay: Inhibitory concentration required to inhibit recombinant HIV-1 reverse transcriptase). Details: not given.

First: Cc1cn([C@@H]2O[C@H](CO[Si](C)(C)C(C)(C)C)[C@@]3(OS(=O)(=O)C=C3N)[C@H]2O[Si](C)(C)C(C)(C)C)c(=O)n(CC(N)=O)c1=O
Second: Cc1cn([C@@H]2O[C@H](CO[Si](C)(C)C(C)(C)C)[C@@]3(OS(=O)(=O)C=C3N)[C@H]2O[Si](C)(C)C(C)(C)C)c(=O)n(CC(=O)O)c1=O
The IC50 of the first is higher: greater than 250 µM for the first, 15 µM for the second. The second is the more potent here.

Compared with `Cc1cn([C@@H]2O[C@H](CO[Si](C)(C)C(C)(C)C)[C@@]3(OS(=O)(=O)C=C3N)[C@H]2O[Si](C)(C)C(C)(C)C)c(=O)n(C/C=C/CO)c1=O`, `COC(=O)CCCCn1c(=O)c(C)cn([C@@H]2O[C@H](CO[Si](C)(C)C(C)(C)C)[C@@]3(OS(=O)(=O)C=C3N)[C@H]2O[Si](C)(C)C(C)(C)C)c1=O` is 73-fold higher in IC50: 4.5 µM for the first, 327 µM for the second.

Work on `CNC(=O)CCCCCn1c(=O)c(C)cn([C@@H]2O[C@H](CO[Si](C)(C)C(C)(C)C)[C@@]3(OS(=O)(=O)C=C3N)[C@H]2O[Si](C)(C)C(C)(C)C)c1=O` yielded an IC50 of 2.4 µM.

These compounds were tested on CCRF-CEM (assay: Ratio of cytostatic concentration to effective concentration in human CEM cell line). Details: not given.
Format: functional

Going from `Cc1cn([C@@H]2O[C@H](CO[Si](C)(C)C(C)(C)C)[C@@]3(OS(=O)(=O)C=C3N)[C@H]2O[Si](C)(C)C(C)(C)C)c(=O)n(CC(N)=O)c1=O` to `Cc1cn([C@@H]2O[C@H](CO[Si](C)(C)C(C)(C)C)[C@@]3(OS(=O)(=O)C=C3N)[C@H]2O[Si](C)(C)C(C)(C)C)c(=O)n(CC(=O)O)c1=O`, the SI falls from 266 to 44.

First: Cc1cn([C@@H]2O[C@H](CO[Si](C)(C)C(C)(C)C)[C@@]3(OS(=O)(=O)C=C3N)[C@H]2O[Si](C)(C)C(C)(C)C)c(=O)n(C/C=C/CO)c1=O
Second: COC(=O)CCCCn1c(=O)c(C)cn([C@@H]2O[C@H](CO[Si](C)(C)C(C)(C)C)[C@@]3(OS(=O)(=O)C=C3N)[C@H]2O[Si](C)(C)C(C)(C)C)c1=O
The SI of the first is lower: 220 for the first, 1563 for the second.

Compared with `CNC(=O)CCCCCn1c(=O)c(C)cn([C@@H]2O[C@H](CO[Si](C)(C)C(C)(C)C)[C@@]3(OS(=O)(=O)C=C3N)[C@H]2O[Si](C)(C)C(C)(C)C)c1=O`, `Cc1cn([C@@H]2O[C@H](CO[Si](C)(C)C(C)(C)C)C3(OS(=O)(=O)C=C3N)[C@H]2O[Si](C)(C)C(C)(C)C)c(=O)[nH]c1=O` (stereo partly specified) is lower in SI: 442 for the first, 200 for the second.

What follows are compounds tested on Human immunodeficiency virus 1 (assay: Effective concentration required to inhibit HIV-1/138K induced cytopathicity in human CEM cell line). Details: Human immunodeficiency virus 1, CCRF-CEM.
Format: functional, organism-based

Going from `Cc1cn([C@@H]2O[C@H](CO[Si](C)(C)C(C)(C)C)[C@@]3(OS(=O)(=O)C=C3N)[C@H]2O[Si](C)(C)C(C)(C)C)c(=O)n(CC(N)=O)c1=O` to `Cc1cn([C@@H]2O[C@H](CO[Si](C)(C)C(C)(C)C)[C@@]3(OS(=O)(=O)C=C3N)[C@H]2O[Si](C)(C)C(C)(C)C)c(=O)n(C/C=C/CO)c1=O`, the EC50 falls from greater than 50 µM to 4.5 µM.

Compared with `CNC(=O)CCCCCn1c(=O)c(C)cn([C@@H]2O[C@H](CO[Si](C)(C)C(C)(C)C)[C@@]3(OS(=O)(=O)C=C3N)[C@H]2O[Si](C)(C)C(C)(C)C)c1=O`, `Cc1cn([C@@H]2O[C@H](CO[Si](C)(C)C(C)(C)C)C3(OS(=O)(=O)C=C3N)[C@H]2O[Si](C)(C)C(C)(C)C)c(=O)[nH]c1=O` (stereo partly specified) is higher in EC50: 10 µM for the first, greater than 10 µM for the second.

The compounds below were run on Human immunodeficiency virus 2 (assay: Effective concentration required to inhibit HIV-2 induced cytopathicity in human MT-4 cell line). Details: Human immunodeficiency virus 2, MT4.
Format: functional, organism-based

`Cc1cn([C@@H]2O[C@H](CO[Si](C)(C)C(C)(C)C)[C@@]3(OS(=O)(=O)C=C3N)[C@H]2O[Si](C)(C)C(C)(C)C)c(=O)n(CC(N)=O)c1=O` and `Cc1cn([C@@H]2O[C@H](CO[Si](C)(C)C(C)(C)C)[C@@]3(OS(=O)(=O)C=C3N)[C@H]2O[Si](C)(C)C(C)(C)C)c(=O)n(CC(=O)O)c1=O` cannot be ordered by EC50: greater than 10 µM for the first, greater than 155 µM for the second.

`Cc1cn([C@@H]2O[C@H](CO[Si](C)(C)C(C)(C)C)[C@@]3(OS(=O)(=O)C=C3N)[C@H]2O[Si](C)(C)C(C)(C)C)c(=O)n(C/C=C/CO)c1=O` and `COC(=O)CCCCn1c(=O)c(C)cn([C@@H]2O[C@H](CO[Si](C)(C)C(C)(C)C)[C@@]3(OS(=O)(=O)C=C3N)[C@H]2O[Si](C)(C)C(C)(C)C)c1=O` cannot be ordered by EC50: greater than 2 µM for the first, greater than 142 µM for the second.

`CNC(=O)CCCCCn1c(=O)c(C)cn([C@@H]2O[C@H](CO[Si](C)(C)C(C)(C)C)[C@@]3(OS(=O)(=O)C=C3N)[C@H]2O[Si](C)(C)C(C)(C)C)c1=O` and `Cc1cn([C@@H]2O[C@H](CO[Si](C)(C)C(C)(C)C)C3(OS(=O)(=O)C=C3N)[C@H]2O[Si](C)(C)C(C)(C)C)c(=O)[nH]c1=O` (stereo partly specified) cannot be ordered by EC50: greater than 125 µM for the first, greater than 20 µM for the second.

Each compound was assayed on Human immunodeficiency virus 1 (assay: Effective concentration required to inhibit HIV-1 induced cytopathicity in human MT-4 cell line). Details: Human immunodeficiency virus 1, MT4.
Format: functional, organism-based

First: Cc1cn([C@@H]2O[C@H](CO[Si](C)(C)C(C)(C)C)[C@@]3(OS(=O)(=O)C=C3N)[C@H]2O[Si](C)(C)C(C)(C)C)c(=O)n(C/C=C/CO)c1=O
Second: COC(=O)CCCCn1c(=O)c(C)cn([C@@H]2O[C@H](CO[Si](C)(C)C(C)(C)C)[C@@]3(OS(=O)(=O)C=C3N)[C@H]2O[Si](C)(C)C(C)(C)C)c1=O
The EC50 of the first is 2.9-fold lower: 0.07 µM for the first, 0.2 µM for the second. The first is the more potent here.

Work on `CNC(=O)CCCCCn1c(=O)c(C)cn([C@@H]2O[C@H](CO[Si](C)(C)C(C)(C)C)[C@@]3(OS(=O)(=O)C=C3N)[C@H]2O[Si](C)(C)C(C)(C)C)c1=O` yielded an EC50 of 0.03 µM.

What follows are compounds tested on Human immunodeficiency virus 1 (assay: Effective concentration required to inhibit HIV-1 induced cytopathicity in human CEM cell line). Details: Human immunodeficiency virus 1, CCRF-CEM.
Format: functional, organism-based

Going from `Cc1cn([C@@H]2O[C@H](CO[Si](C)(C)C(C)(C)C)[C@@]3(OS(=O)(=O)C=C3N)[C@H]2O[Si](C)(C)C(C)(C)C)c(=O)n(CC(N)=O)c1=O` to `Cc1cn([C@@H]2O[C@H](CO[Si](C)(C)C(C)(C)C)[C@@]3(OS(=O)(=O)C=C3N)[C@H]2O[Si](C)(C)C(C)(C)C)c(=O)n(CC(=O)O)c1=O`, the EC50 rises from 0.05 µM to 3.48 µM (70-fold). The first is the more potent here.

First: Cc1cn([C@@H]2O[C@H](CO[Si](C)(C)C(C)(C)C)[C@@]3(OS(=O)(=O)C=C3N)[C@H]2O[Si](C)(C)C(C)(C)C)c(=O)n(C/C=C/CO)c1=O
Second: COC(=O)CCCCn1c(=O)c(C)cn([C@@H]2O[C@H](CO[Si](C)(C)C(C)(C)C)[C@@]3(OS(=O)(=O)C=C3N)[C@H]2O[Si](C)(C)C(C)(C)C)c1=O
The EC50 of the first is 4-fold lower: 0.02 µM for the first, 0.08 µM for the second.

`CNC(=O)CCCCCn1c(=O)c(C)cn([C@@H]2O[C@H](CO[Si](C)(C)C(C)(C)C)[C@@]3(OS(=O)(=O)C=C3N)[C@H]2O[Si](C)(C)C(C)(C)C)c1=O` was tested, and the EC50 was 0.05 µM.

The compounds below were run on CCRF-CEM (assay: Cytostatic concentration required to inhibit cell proliferation in human CEM cell line). Details: not given.
Format: functional

Compared with `Cc1cn([C@@H]2O[C@H](CO[Si](C)(C)C(C)(C)C)[C@@]3(OS(=O)(=O)C=C3N)[C@H]2O[Si](C)(C)C(C)(C)C)c(=O)n(CC(N)=O)c1=O`, `Cc1cn([C@@H]2O[C@H](CO[Si](C)(C)C(C)(C)C)[C@@]3(OS(=O)(=O)C=C3N)[C@H]2O[Si](C)(C)C(C)(C)C)c(=O)n(CC(=O)O)c1=O` is 11-fold higher in CC50: 13.3 µM for the first, 152 µM for the second.

Compared with `Cc1cn([C@@H]2O[C@H](CO[Si](C)(C)C(C)(C)C)[C@@]3(OS(=O)(=O)C=C3N)[C@H]2O[Si](C)(C)C(C)(C)C)c(=O)n(C/C=C/CO)c1=O`, `COC(=O)CCCCn1c(=O)c(C)cn([C@@H]2O[C@H](CO[Si](C)(C)C(C)(C)C)[C@@]3(OS(=O)(=O)C=C3N)[C@H]2O[Si](C)(C)C(C)(C)C)c1=O` is 28-fold higher in CC50: 4.41 µM for the first, 125 µM for the second.

Compared with `CNC(=O)CCCCCn1c(=O)c(C)cn([C@@H]2O[C@H](CO[Si](C)(C)C(C)(C)C)[C@@]3(OS(=O)(=O)C=C3N)[C@H]2O[Si](C)(C)C(C)(C)C)c1=O`, `Cc1cn([C@@H]2O[C@H](CO[Si](C)(C)C(C)(C)C)C3(OS(=O)(=O)C=C3N)[C@H]2O[Si](C)(C)C(C)(C)C)c(=O)[nH]c1=O` (stereo partly specified) is 1.8-fold lower in CC50: 22.1 µM for the first, 12 µM for the second.
